From patent US20250163052A1, “cGAS INHIBITORS AND USES THEREOF” (Cornell University, priority 2022, published 2025)
Like-named read-outs stand apart in the source and are kept apart here.

How the values were obtained:
PDE4D2 = PDE4D2 (Homo sapiens, UniProt Q08499); assay: Safety panel screening, PDE4D2 IMAP; assay type: biochemical; conditions: read-out: Mean percentage inhibition (%) at 10 μM, PDE4D2
[1] = Pharmacokinetic study, plasma and brain PK parameters after I.P. dosing; assay type: in vivo, mouse; conditions: 25 mg/Kg I.P.; for Kp / AUC(0-inf) / AUC(0-t) / MRT inf / half-life / Tmax / Cmax: mouse, ip; for Kp: brain/plasma, 25 mg/kg
Procedure: To test pharmacokinetics, TDI-6570 ([…] solution in water containing 0.2% Tween 80) was administered to 8-weeks old CD-1 male mice (n=3 for each time point) intraperitoneally (IP) and both plasma (EDTA-K2) and brain tissues were collected at various time points (0.5, 2, 4, 8 and 24 hours post drug administration). Transcardial perfusion were performed with saline prior to brain collection. Bioanalysis of brain tissue and plasma extracts were performed by LC-MS/MS.

SET = SET (Homo sapiens, UniProt P31645); assay: Safety panel screening, serotonin transporter neurotransmitter uptake; assay type: cell-based; conditions: read-out: Mean percentage inhibition (%) at 10 μM, SET
NFkB-SEAP = assay: THP1-Dual cells transfected with DNA, nfkb expression (Quantiblue); assay type: cell-based; conditions: Homo sapiens; for inhibition at 10 µM: THP-1, 10 μM; for inhibition at 30 µM: THP-1, 30 μM
How it was run: (§1)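 THP1-Dual cells were treated with compounds at various dilutions for 4 h, then transfected with DNA (2 ug/ml) using lipofectamine and incubated overnight. Supernatant Ifnb reporter was read with Quantiluc and nfkb reporter with Quantiblue; viability was measured by CellTiter-Glo.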

h-cGAS = h-cGAS (Homo sapiens, UniProt Q8N884); assay: Cell-free human cGAS enzyme inhibition assay (ATP depletion, Kinase-Glo Max); assay type: biochemical; conditions: 3 h; for inhibition at 1 µM: read-out: h-cGAS, conc. 1 μM; for inhibition at 10 µM: read-out: h-cGAS, conc. 10 μM
[2] = Protein binding in mouse brain homogenates; assay type: in vitro ADME; conditions: for recovery at 6 h / fraction unbound at 6 hr: brain homogenate; for fraction unbound at 6 hr: read-out: % BoundBrain (converted)
D1 = D1 (Homo sapiens, UniProt P21728); assay: Safety panel screening, D1 cAMP assay; assay type: cell-based; conditions: for inhibition at 10 µM: antagonist mode, read-out: Antagonist Mode Mean percentage inhibition (%) at 10 μM, D1
5HT2B = 5HT2B (Homo sapiens, UniProt P41595); assay: Safety panel screening, 5HT2B Ca2+ mobilization; assay type: cell-based; conditions: for inhibition at 10 µM: antagonist mode, read-out: Antagonist Mode Mean percentage inhibition (%) at 10 μM, 5HT2B
m-cGAS = m-cGAS (Mus musculus, UniProt Q8C6L5); assay: Cell-free mouse cGAS enzyme inhibition assay (ATP depletion, Kinase-Glo Max); assay type: biochemical; conditions: 1 h; for inhibition at 10 µM: read-out: m-cGAS, conc. 10 μM; for inhibition at 1 µM: read-out: m-cGAS, conc. 1 μM
IFNB = assay: THP1-Dual cells transfected with DNA, Ifnb expression (Quantiluc); assay type: cell-based; conditions: Homo sapiens; for inhibition at 10 µM: THP-1, 10 μM; for inhibition at 30 µM: THP-1, 30 μM
How it was run: as §1

[3] = Metabolic stability in mouse liver microsomes; conditions: for Remaining (NCF = 60 min) / Remaining (T = 60 min): mouse liver microsomes; for Remaining (NCF = 60 min): no co-factor (no NADPH); for Remaining (T = 60 min): 60 min with NADPH; for CLint scaled / half-life / microsomal CLint: mouse, liver microsomes
THP1 cells = assay: THP1-Dual cells, cell viability (CellTiter-Glo); assay type: cell-based
How it was run: as §1

hERG = hERG (Homo sapiens, UniProt Q12809); assay: Safety panel screening, hERG automated patch clamp; assay type: cell-based; conditions: read-out: Mean percentage inhibition (%) at 10 μM, hERG
[4] = Metabolic stability in human liver microsomes
[5] = read-out: AUClast Ratio (brain/plasma)
[6] = read-out: Cmax Ratio (brain/plasma)
[7] = brain, read-out: AUCInf (Brain)
[8] = brain, read-out: AUClast (Brain)
[9] = brain, read-out: MRTInf_obs (Brain)
[10] = brain, read-out: T1/2 (Brain) (converted)
[11] = plasma, read-out: AUCInf (plasma)
[12] = plasma, read-out: AUClast (plasma)
[13] = plasma, read-out: MRTInf_obs (plasma)
[14] = plasma, read-out: T1/2 (plasma) (converted)
[15] = plasma, read-out: Tmax (plasma)

h-cGAS, sequence (Q8N884 whole entry): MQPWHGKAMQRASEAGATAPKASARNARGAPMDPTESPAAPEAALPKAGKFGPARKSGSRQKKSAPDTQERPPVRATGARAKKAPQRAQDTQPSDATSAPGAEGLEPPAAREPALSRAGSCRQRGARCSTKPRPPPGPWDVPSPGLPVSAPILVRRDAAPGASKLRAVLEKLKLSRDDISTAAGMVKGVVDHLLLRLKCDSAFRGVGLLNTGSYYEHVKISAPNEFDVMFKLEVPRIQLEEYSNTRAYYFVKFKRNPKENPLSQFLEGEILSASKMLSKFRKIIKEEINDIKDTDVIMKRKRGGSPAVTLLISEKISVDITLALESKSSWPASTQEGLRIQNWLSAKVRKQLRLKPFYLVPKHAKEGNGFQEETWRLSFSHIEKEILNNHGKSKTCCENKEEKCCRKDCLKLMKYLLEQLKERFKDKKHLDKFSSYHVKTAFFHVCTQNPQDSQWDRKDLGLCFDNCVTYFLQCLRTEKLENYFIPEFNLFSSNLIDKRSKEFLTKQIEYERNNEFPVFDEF
m-cGAS, sequence (Q8C6L5 whole entry): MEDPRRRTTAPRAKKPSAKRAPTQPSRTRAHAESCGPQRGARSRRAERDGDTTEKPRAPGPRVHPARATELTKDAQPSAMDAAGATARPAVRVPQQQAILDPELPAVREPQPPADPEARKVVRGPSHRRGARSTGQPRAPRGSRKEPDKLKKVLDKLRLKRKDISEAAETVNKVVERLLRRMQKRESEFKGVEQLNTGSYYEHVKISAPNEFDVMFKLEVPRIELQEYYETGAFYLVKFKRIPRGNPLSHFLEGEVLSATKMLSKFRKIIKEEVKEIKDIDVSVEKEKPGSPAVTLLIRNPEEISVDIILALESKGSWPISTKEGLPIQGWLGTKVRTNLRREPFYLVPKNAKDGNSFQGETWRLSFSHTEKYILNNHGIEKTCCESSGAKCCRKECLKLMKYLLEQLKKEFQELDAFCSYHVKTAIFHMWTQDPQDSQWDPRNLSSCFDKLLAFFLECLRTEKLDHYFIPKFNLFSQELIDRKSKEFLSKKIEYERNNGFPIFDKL
D1, sequence (P21728 whole entry): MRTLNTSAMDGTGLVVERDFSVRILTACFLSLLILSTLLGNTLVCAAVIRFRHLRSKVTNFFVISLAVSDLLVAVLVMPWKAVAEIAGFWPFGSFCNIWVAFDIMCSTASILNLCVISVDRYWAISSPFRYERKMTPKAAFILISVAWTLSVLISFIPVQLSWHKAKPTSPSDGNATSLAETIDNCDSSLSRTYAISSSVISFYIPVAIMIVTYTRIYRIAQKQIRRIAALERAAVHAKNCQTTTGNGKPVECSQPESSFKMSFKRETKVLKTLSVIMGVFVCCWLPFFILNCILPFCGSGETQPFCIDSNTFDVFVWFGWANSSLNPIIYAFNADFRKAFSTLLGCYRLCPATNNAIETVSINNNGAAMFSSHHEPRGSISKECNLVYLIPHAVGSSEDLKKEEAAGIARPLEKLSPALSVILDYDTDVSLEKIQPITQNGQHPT
5HT2B, sequence (P41595 whole entry, species assumed): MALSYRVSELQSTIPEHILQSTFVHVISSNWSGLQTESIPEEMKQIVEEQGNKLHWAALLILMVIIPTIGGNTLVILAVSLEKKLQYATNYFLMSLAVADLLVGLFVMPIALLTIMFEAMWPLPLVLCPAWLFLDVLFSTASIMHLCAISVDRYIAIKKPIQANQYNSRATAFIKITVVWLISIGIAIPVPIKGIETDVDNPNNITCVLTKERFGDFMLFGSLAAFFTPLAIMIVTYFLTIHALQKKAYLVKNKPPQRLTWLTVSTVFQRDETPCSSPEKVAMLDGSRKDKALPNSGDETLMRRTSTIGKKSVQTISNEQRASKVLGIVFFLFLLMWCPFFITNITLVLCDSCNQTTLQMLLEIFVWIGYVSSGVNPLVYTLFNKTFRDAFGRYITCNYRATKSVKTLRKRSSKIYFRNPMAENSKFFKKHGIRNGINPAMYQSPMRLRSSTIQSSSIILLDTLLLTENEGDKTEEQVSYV
SET, sequence (P31645 whole entry): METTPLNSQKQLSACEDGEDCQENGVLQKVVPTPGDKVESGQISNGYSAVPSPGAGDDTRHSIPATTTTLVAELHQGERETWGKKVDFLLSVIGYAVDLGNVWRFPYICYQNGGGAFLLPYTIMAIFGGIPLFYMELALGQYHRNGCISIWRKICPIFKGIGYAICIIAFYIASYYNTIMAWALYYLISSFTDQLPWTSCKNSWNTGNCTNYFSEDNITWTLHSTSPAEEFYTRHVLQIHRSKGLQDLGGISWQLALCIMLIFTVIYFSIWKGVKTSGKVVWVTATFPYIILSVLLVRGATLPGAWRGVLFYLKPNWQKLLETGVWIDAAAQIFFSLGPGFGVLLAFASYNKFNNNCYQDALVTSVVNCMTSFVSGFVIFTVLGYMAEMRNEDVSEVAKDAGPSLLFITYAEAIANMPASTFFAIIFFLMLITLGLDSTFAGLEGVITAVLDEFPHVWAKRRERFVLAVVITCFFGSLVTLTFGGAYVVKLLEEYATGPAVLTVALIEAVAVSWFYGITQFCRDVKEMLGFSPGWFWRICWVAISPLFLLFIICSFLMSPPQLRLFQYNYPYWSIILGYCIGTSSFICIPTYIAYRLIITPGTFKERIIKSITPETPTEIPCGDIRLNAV
PDE4D2, sequence (Q08499 303-809): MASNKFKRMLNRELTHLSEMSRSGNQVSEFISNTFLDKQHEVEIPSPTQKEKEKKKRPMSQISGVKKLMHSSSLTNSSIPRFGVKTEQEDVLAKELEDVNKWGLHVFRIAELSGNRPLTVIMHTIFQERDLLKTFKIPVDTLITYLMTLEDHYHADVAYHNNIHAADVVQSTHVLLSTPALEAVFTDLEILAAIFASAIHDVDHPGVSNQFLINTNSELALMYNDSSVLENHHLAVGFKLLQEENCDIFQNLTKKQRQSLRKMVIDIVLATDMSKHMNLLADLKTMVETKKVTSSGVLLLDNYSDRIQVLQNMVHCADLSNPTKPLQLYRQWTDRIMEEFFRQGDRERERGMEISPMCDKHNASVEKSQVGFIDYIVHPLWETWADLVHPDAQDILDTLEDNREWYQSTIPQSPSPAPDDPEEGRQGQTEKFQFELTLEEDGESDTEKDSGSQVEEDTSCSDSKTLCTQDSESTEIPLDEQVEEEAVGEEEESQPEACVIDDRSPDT
hERG, sequence (Q12809 whole entry): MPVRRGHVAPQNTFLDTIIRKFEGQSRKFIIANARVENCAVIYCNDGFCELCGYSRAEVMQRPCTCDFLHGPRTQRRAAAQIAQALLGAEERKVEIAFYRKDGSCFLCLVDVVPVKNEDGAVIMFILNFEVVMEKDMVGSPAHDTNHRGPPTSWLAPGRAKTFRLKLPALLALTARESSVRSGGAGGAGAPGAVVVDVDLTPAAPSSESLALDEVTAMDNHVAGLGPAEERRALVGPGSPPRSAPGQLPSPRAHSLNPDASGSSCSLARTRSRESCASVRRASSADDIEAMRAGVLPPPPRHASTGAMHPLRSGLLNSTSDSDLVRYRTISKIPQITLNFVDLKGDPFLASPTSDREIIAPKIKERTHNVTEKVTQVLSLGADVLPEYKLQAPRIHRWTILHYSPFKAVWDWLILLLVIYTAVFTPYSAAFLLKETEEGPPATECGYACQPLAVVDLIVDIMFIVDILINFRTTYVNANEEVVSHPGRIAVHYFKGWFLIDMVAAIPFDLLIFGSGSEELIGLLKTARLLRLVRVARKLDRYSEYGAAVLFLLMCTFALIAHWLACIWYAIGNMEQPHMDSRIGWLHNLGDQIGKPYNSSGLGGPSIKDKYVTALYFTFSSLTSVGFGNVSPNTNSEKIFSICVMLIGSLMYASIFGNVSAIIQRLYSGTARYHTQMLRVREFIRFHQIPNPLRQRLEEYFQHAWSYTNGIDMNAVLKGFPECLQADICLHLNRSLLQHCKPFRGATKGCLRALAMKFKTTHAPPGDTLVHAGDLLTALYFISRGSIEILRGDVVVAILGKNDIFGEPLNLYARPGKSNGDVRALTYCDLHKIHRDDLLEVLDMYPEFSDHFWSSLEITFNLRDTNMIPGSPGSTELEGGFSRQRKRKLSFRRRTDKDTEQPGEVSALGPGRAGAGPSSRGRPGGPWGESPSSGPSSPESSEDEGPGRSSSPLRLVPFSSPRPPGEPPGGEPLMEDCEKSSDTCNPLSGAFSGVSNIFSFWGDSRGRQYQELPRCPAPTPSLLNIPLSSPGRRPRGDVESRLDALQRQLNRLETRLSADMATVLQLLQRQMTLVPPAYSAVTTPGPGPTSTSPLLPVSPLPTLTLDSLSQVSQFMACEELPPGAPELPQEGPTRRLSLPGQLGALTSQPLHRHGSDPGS

## Cn1cc(-c2cc(Cl)c(Cl)c3sc4c(c23)CN(C(=O)CO)CC4)cn1 [Compound 48]
PDE4D2
  inhibition at 10 µM: 56.4%
[1]; brain
  AUC_%Extrap_obs (Brain): 0.813%
  AUClast/D (Brain): 5081 mg·h/mL
  Cmax (Brain): 19853 ng/mL
[1]; [5]
  Kp: 3.79
[1]; [6]
  Kp: 3.14
[1]; [7]
  AUC(0-inf): 128000 ng·h/mL
[1]; [8]
  AUC(0-t): 127000 ng·h/mL
[1]; [9]
  MRT inf: 4.69 h
[1]; [10]
  half-life: 3.45 h
[1]; brain, read-out: Tmax (Brain)
  Tmax: 2 h
[1]; plasma
  Cmax: 6320 ng/mL
  AUC_%Extrap_obs (plasma): 0.0394%
  AUClast/D (plasma): 1339 mg·h/mL
[1]; [11]
  AUC(0-inf): 33500 ng·h/mL
[1]; [12]
  AUC(0-t): 33500 ng·h/mL
[1]; [13]
  MRT inf: 4.95 h
[1]; [14]
  half-life: 4.53 h
[1]; [15]
  Tmax: 1 h
SET
  inhibition at 10 µM: 46.2%
NFkB-SEAP
  inhibition at 10 µM: < 24%
  inhibition at 30 µM: 50 to 74%
h-cGAS
  inhibition at 1 µM: 0 to 24%
  inhibition at 10 µM: 50 to 74%
[2]
  LogK: >4.17
  % Remaining at 6 hr: 92.46%
  recovery at 6 h: < 91.1%
  fraction unbound at 6 hr: < 0.0001
D1
  Agonist Mode Mean percentage activation (%) at 10 μM, D1: 4.36%
  inhibition at 10 µM: 6.62%
5HT2B
  Agonist Mode Mean percentage activation (%) at 10 μM, 5HT2B: −0.48%
  inhibition at 10 µM: 34.5%
m-cGAS
  inhibition at 10 µM: 0 to 24%
IFNB
  inhibition at 10 µM: 25 to 49%
  inhibition at 30 µM: 50 to 74%
[3]
  Remaining (NCF = 60 min): 94.7%
  Remaining (T = 60 min): 88.1%
  CLint scaled: 87.2 mL/min/kg
  half-life: 0.0333 h
  microsomal CLint: 679 µL/min/mg
THP1 cells
  Cell viability 10 μM: +++ (+, ++, and +++ mean the compound respectively shows 25-49%; 50-74%; or 75-100% viability to cells)
  Cell viability 30 μM: +++ (+, ++, and +++ mean the compound respectively shows 25-49%; 50-74%; or 75-100% viability to cells)
hERG
  inhibition at 10 µM: 63%

## O=C(CO)N1CCc2c(sc3c(Cl)c(Cl)cc(-c4cn[nH]c4)c23)C1 [Compound 63]
PDE4D2
  inhibition at 10 µM: 73.2%
[1]; brain
  AUC_%Extrap_obs (Brain): 1.62%
  AUClast/D (Brain): 1354 mg·h/mL
  Cmax (Brain): 3721 ng/mL
[1]; [5]
  Kp: 0.989
[1]; [6]
  Kp: 0.734
[1]; [7]
  AUC(0-inf): 34400 ng·h/mL
[1]; [8]
  AUC(0-t): 33900 ng·h/mL
[1]; [9]
  MRT inf: 6.51 h
[1]; [10]
  half-life: 3.86 h
[1]; brain, read-out: Tmax (Brain)
  Tmax: 4 h
[1]; plasma
  Cmax: 5070 ng/mL
  AUC_%Extrap_obs (plasma): 0.0536%
  AUClast/D (plasma): 1370 mg·h/mL
[1]; [11]
  AUC(0-inf): 34300 ng·h/mL
[1]; [12]
  AUC(0-t): 34200 ng·h/mL
[1]; [13]
  MRT inf: 4.76 h
[1]; [14]
  half-life: 4.79 h
[1]; [15]
  Tmax: 2 h
SET
  inhibition at 10 µM: 15.2%
NFkB-SEAP
  inhibition at 10 µM: 25 to 49%
  inhibition at 30 µM: 75 to 100%
h-cGAS
  inhibition at 10 µM: 25 to 49%
[2]
  LogK: >4.72
  % Remaining at 6 hr: 108.27%
  recovery at 6 h: < 88.4%
  fraction unbound at 6 hr: < 2e-05
D1
  Agonist Mode Mean percentage activation (%) at 10 μM, D1: 6.19%
  inhibition at 10 µM: 3.08%
5HT2B
  Agonist Mode Mean percentage activation (%) at 10 μM, 5HT2B: 22.36%
  inhibition at 10 µM: 49.4%
m-cGAS
  inhibition at 1 µM: 25 to 49%
  inhibition at 10 µM: 50 to 74%
IFNB
  inhibition at 10 µM: 50 to 74%
  inhibition at 30 µM: 75 to 100%
THP1 cells
  Cell viability 10 μM: +++ (+, ++, and +++ mean the compound respectively shows 25-49%; 50-74%; or 75-100% viability to cells)
  Cell viability 30 μM: +++ (+, ++, and +++ mean the compound respectively shows 25-49%; 50-74%; or 75-100% viability to cells)
hERG
  inhibition at 10 µM: 49.7%

## Cn1cc(-c2cc(Cl)c(Cl)c3oc4c(c23)CN(C(=O)CN)CC4)cn1 [Compound 33]
NFkB-SEAP
  inhibition at 10 µM: 25 to 49%
  inhibition at 30 µM: 75 to 100%
h-cGAS
  inhibition at 1 µM: 50 to 74%
  inhibition at 10 µM: 75 to 100%
[2]
  LogK: >4.39
  % Remaining at 6 hr: 90.87%
  recovery at 6 h: < 82.4%
  fraction unbound at 6 hr: < 4e-05
[4]; human liver microsomes, 60 min, no co-factor (no NADPH)
  Remaining (NCF = 60 min): 109.6%
[4]; human liver microsomes, 60 min with NADPH
  Remaining (T = 60 min): 87.6%
[4]; human, liver microsomes
  CLint scaled: < 8.6 mL/min/kg
  half-life: > 2.42 h
  microsomal CLint: < 9.6 µL/min/mg
m-cGAS
  inhibition at 1 µM: 75 to 100%
  inhibition at 10 µM: 75 to 100%
IFNB
  inhibition at 10 µM: 25 to 49%
  inhibition at 30 µM: 75 to 100%
[3]
  Remaining (NCF = 60 min): 90.0%
  Remaining (T = 60 min): 72.5%
  CLint scaled: 38.5 mL/min/kg
  half-life: 2.38 h
  microsomal CLint: 9.7 µL/min/mg
THP1 cells
  Cell viability 10 μM: +++ (+, ++, and +++ mean the compound respectively shows 25-49%; 50-74%; or 75-100% viability to cells)
  Cell viability 30 μM: + (+, ++, and +++ mean the compound respectively shows 25-49%; 50-74%; or 75-100% viability to cells)
